Among the data in BindingDB's records for doi:10.1021/jm9012642 (Wyeth Research, 2009) are IC50 values, retold here.

For this assay, the target named is Serine/threonine-protein kinase mTOR (Homo sapiens, UniProt P42345). As to the kind of experiment: mTOR Kinase Assay. The settings on record: 25 °C.

Each structure is given as a SMILES string.

`Oc1cccc(-c2nc(N3CCOCC3)c3cnn(C4CCN(Cc5cccnc5)CC4)c3n2)c1` [JMC527081 Compound 5f]: the IC50 (as a rule, the concentration at which inhibition is half-maximal) was found to be 47 nM.
